Results taken from BigSolDB 2.1.

Nc1ccccc1N
solubility (mole fraction)
Conditions	in acetonitrile	in ethanol	in methanol	in water
283.15 K	0.0558	0.0139	0.0516	0.00447
285.65 K	0.0595	0.0144	0.0533	0.00467
288.15 K	0.0643	0.0148	0.0554	0.00495
290.65 K	0.0685	0.0154	0.0572	0.00517
293.15 K	0.0752	0.016	0.0596	0.00545
295.65 K	0.0795	0.0165	0.0613	0.00573
298.15 K	0.0858	0.0172	0.0637	0.00608
300.65 K	0.0916	0.0177	0.0658	0.0064
303.15 K	0.0987	0.0184	0.0685	0.00678
305.65 K	0.104	0.019	0.0708	0.00717
308.15 K	0.113	0.0199	0.0732	0.00762
310.65 K	0.12	0.0205	0.0758	0.00803
313.15 K	0.128	0.0213	0.0795	0.00855
315.65 K	0.135	0.0221	0.0828	0.00923
318.15 K	0.143	0.0233	0.0868	0.0102
